Series [1] in a line: Cyclic voltammetry, cathodic peak potential Co(III)/Co(II). The format is physicochemical. Conditions: 10 mM phosphate buffer pH 7.40, 0.1 M KCl, scan rate 30 mV/s, 1.5 mM complex. On the procedure: As the reduction process is crucial for the activation of cobalt(III)-based prodrug systems, the redox properties of the complexes were investigated to elucidate the effects of ligand methylation at different positions. Cyclic voltammetry measurements were performed in aqueous solution at pH 7.40 (10 mM phosphate buffer with 0.1 M KCl). […] Also, at a much higher scan speed of 1000 mV/s, the redox processes were still completely irreversible (Figure S5).
The compounds were dissolved in 10 mM phosphate buffer (pH 7.40), with 0.1 M KCl as the supporting electrolyte, to obtain a final concentration of 1.5 mM. Electrochemical experiments were conducted on an EG&G PARC 273A potentiostat/galvanostat with scan rates of 30 and 1000 mV/s at room temperature. Argon was bubbled through the solution before every measurement to remove oxygen. A three-electrode configuration cell was used with a glassy carbon electrode as the working electrode, which was polished before every measurement. The reference electrode was Ag/AgCl/KCl (3.5 M), and the auxiliary electrode was a platinum wire. Electrodes were conditioned regularly in 1 M H2SO4 for 5–10 cycles between voltage limits of −1.0 and 1.0 V at a scan rate of 100 mV/s. The system was calibrated with 1.5 mM K3[Fe(CN)6] for every experiment. Redox potentials measured relative to the Ag/AgCl/KCl (3.5 M) reference electrode were converted for potentials against NHE by the addition of 0.205 V. Measurements were repeated at least three times, and the mean values were calculated.

Series [2] can be described thus: Interaction with low-molecular weight reducing agents (GSH, AA, NADH), UV-vis and fluorometric detection. The format is physicochemical. Conditions: 10 equiv of GSH, pH 7.40, 25 °C, 24 h. As to the method:
The interaction of AA, GSH, and NADH at pH 7.40 (phosphate buffer) was investigated exemplarily for Co(acac)2L^+ and Co(Meacac)2L^+. The reaction was followed by ultraviolet–visible (UV–vis) and fluorometric detection at 25 °C with a 10-fold excess of reducing agent. Spectrofluorometry was proven to be an effective technique for monitoring this redox reaction, because the free EGFR inhibitor ligand L is highly fluorescent, while its cobalt(III) complex has negligible emission (vide supra).[17] Accordingly, an increase in the emission intensity is expected upon reduction and concomitant release of the free ligand. […] The same tendency was observed by UV–vis detection (data not shown). […] AA and NADH were also not able to reduce the two complexes even after 24 h. […]
Proton dissociation processes of PhEn were followed by UV–vis spectrophotometry and spectrofluorometry; samples were prepared in water containing 100 and 10 μM ligand, respectively, and 0.1 M KCl at 25 ± 0.2 °C. The proton dissociation constants and the UV–vis or fluorescence emission spectra of the individual species in the various protonation states were calculated by deconvolution of the spectra recorded in the pH range of 2.0–11.5 with PSEQUAD.[40] […] Batch samples contained 30 μM cobalt(III) complex and 10 equiv of AA, GSH, or NADH in PBS buffer (pH 7.40) and were used only once to record their UV–vis and fluorescence spectra. […]

Series [3] concerns EGFR phosphorylation at position Y1068 and ERK 1/2 in A431 cells. Description: Western blot of EGFR signaling (pEGFR Y1068, pERK 1/2) after EGF stimulation. The format is cell-based, Human. Conditions: A431 serum-starved, 2 h drug, EGF 50 ng/mL 10 min, normoxic. Background: In western blotting, separated proteins are transferred to a membrane and probed.
Series [4] deals with A431 cancer cells. Briefly: MTT-based cytotoxicity assay under different O2 levels. The format is cell-based, Human. The note with it: A431, 72 h.
Series [5] is described as follows: Serum stability, HPLC-MS. Format: in vitro ADME. The note with it: FCS, 37 °C, pH 7.4, 50 μM, 26 h. As to the method: The data presented in the previous sections indicate that even in the presence of low-molecular weight reducing agents the cobalt(III) complexes are completely stable. Therefore, we wanted to investigate if this is still true in a more elaborate biological environment like blood serum. To this end, the four EGFR inhibitor complexes were dissolved in 50 mM phosphate puffer and mixed in a 1:10 ratio with fetal calf serum (FCS; buffered with 150 mM phosphate buffer to keep a stable pH of 7.4) to a final concentration of 50 μM. The samples were incubated at 37 °C and after 0, 2, 6, 24, and 26 h extracted with acetonitrile and measured by HPLC-MS. […] The intact complex could be observed at 14.2 min (blue peak, m/z 614.0). The red signal at the same retention time (Figure 7A; 14.2 min, m/z 358.1) is a mass spectrometry artifact and belongs to the free ligand generated during ionization of the complex.
For serum stability measurements, 135 μL of FCS, buffered with 150 mM phosphate (Na2HPO4/NaH2PO4) to maintain a pH value of 7.4, was mixed with 15 μL of a 500 μM stock solution of the respective complex in 50 mM phosphate buffer to reach a final concentration of 50 μM. The samples were incubated at 37 °C. At different time points, to 20 μL of serum was added 40 μL of ACN. […] The supernatant was taken up with a syringe and directly measured via HPLC-MS.

Series [6] deals with EGFR (ErbB1) (Homo sapiens, UniProt P00533). Description: Cell-free kinase inhibition assay (ZLYTE, Select Screen). Conditions: 10 μM ATP (10-fold excess of ATP), 1% DMSO. The format is biochemical.
Sequence of EGFR (ErbB1) (P00533 25-1210): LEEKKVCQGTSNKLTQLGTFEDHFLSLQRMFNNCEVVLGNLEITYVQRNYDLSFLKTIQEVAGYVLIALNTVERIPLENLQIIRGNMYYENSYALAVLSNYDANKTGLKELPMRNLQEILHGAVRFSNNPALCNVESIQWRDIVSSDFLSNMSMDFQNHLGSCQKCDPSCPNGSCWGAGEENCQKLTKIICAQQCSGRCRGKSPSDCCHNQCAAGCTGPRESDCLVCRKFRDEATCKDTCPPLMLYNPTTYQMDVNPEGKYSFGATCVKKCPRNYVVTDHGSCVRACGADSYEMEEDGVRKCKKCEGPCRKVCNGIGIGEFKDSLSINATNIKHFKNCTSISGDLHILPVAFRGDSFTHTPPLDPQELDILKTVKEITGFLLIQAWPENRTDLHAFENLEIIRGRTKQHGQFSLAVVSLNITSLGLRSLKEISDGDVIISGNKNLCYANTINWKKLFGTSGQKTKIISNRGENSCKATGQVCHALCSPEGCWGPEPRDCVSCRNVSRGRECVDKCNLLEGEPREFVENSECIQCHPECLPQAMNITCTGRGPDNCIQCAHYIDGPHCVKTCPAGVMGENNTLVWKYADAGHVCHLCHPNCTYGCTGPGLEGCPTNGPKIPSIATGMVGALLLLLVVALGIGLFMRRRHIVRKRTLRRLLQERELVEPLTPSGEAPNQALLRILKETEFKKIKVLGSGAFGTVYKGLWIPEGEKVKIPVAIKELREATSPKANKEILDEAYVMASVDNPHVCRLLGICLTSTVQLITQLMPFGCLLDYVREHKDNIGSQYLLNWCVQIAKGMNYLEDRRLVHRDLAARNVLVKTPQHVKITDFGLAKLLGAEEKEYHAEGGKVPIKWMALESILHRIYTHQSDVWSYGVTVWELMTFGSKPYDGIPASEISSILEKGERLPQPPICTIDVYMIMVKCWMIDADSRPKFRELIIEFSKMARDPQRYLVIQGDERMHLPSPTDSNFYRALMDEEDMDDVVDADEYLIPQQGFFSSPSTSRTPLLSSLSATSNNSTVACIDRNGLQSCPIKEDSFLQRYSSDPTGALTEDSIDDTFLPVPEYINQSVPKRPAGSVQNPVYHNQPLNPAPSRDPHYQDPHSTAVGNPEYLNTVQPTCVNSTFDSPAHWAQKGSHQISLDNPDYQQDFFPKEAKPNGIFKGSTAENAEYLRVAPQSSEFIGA
On the set-up of series [7]: method as in PMID 29567575. Conditions: pH 7.40; cited from earlier work.
The conditions of series [8]: previous work; cited from earlier work.
The test system of series [9] is EGFR phosphorylation at position Y1068 and ERK 1/2 in A431 cells. Set-up: method as in PMID 25079700. The note with it: A431, normoxic; cited from earlier work.
The mark [10] stands for this setting: 0.1% O2, read-out: IC50 hypoxia with 0.1% O2.
The mark [11] stands for this setting: 1% O2, read-out: IC50 hypoxia with 1% O2.
Where [12] appears, read: 5% O2, read-out: IC50 hypoxia with 5% O2.
The mark [13] stands for this setting: 21% O2, read-out: IC50 normoxia.

Data on three molecules can be found in publication PMC7724630, “Improving the Stability of EGFR Inhibitor Cobalt(III) Prodrugs” (Inorganic Chemistry, 2020).

Read-outs that look alike come from different tables or passages of the source. Some results are limits rather than exact numbers.

Turning to `CC(=O)[C-](C)C(C)=O.CC(=O)[C-](C)C(C)=O.NCCNc1ccc2ncnc(Nc3cccc(Br)c3)c2c1.[Cl-].[Co+3]` [Co(Meacac)2L^+, Bis(3-methyl-2,4-pentanedionato) N^6-(2-Aminoethyl)-N^4-(3-bromophenyl)quinazoline-4,6-diamine Cobalt(III) Chloride], in series [1], the “cathodic peak potential (Ec) vs NHE” value worked out at 4 mV. Moreover, the “reduction / release of free ligand L by GSH” value in series [2] was “practically no reduction process”. Moreover, in series [3], the “EGFR-inhibitory potential (pEGFR, pERK 1/2)” value was “distinctly weakened EGFR-inhibitory potential”. Besides, the IC50 in [4] (setting [10]) was 23.5 ± 5.1 µM; in series [4] (setting [11]), 25.3 ± 3.9 µM; in series [4] (setting [12]), 45.5 ± 2.7 µM; in series [4] (setting [13]), 51.9 ± 9.4 µM.
Consider `CC(=O)[CH-]C(C)=O.CC(=O)[CH-]C(C)=O.CNCCNc1ccc2ncnc(Nc3cccc(Br)c3)c2c1.[Cl-].[Co+3]` [Co(acac)2MeL^+, Bis(2,4-pentanedionato) N^4-(3-Bromophenyl)-N^6-[2-(methylamino)ethyl]quinazoline-4,6-diamine Cobalt(III) Chloride], for which the “cathodic peak potential (Ec) vs NHE” value in [1] came to 120 mV. Also, the “intact compound after serum incubation” value in series [5] amounted to 50%. The IC50 in [4] (setting [10]) is 11.9 ± 3.5 µM; in series [4] (setting [11]) it was 12.5 ± 3.1 µM; in [4] (setting [12]) it was 13.5 ± 3.2 µM; in series [4] (setting [13]), 15.1 ± 1.6 µM. Further, in series [4] (normoxia), the “cobalt complex less active than the respective free ligand” value was ~2 fold.
Consider `NCCNc1ccc2ncnc(Nc3cccc(Br)c3)c2c1` [L, N^6-(2-Aminoethyl)-N^4-(3-bromophenyl)quinazoline-4,6-diamine], for which the IC50 in [6] came out at 0.00029 µM; in [4] (Homo sapiens, A-431, 0.1% O2, read-out: IC50 hypoxia with 0.1% O2), 13.7 ± 2.9 µM; in series [4] (Homo sapiens, A-431, 1% O2, read-out: IC50 hypoxia with 1% O2) it was 12.7 ± 2 µM; in series [4] (Homo sapiens, A-431, 5% O2, read-out: IC50 hypoxia with 5% O2) it was 12.8 ± 0.9 µM; in [4] (Homo sapiens, A-431, 21% O2, read-out: IC50 normoxia) it was 12 ± 1.3 µM. For the same molecule, in series [7], the “log D7.40” value was 1.86 ± 0.03[29]. For the same molecule, the pKa1 in series [8] is < 1.0. In addition, in [8], the pKa2 is on record as 9.21. Also, the “EGFR-inhibitory potential (pEGFR, pERK 1/2)” value in series [9] is listed as “potent EGFR inhibition”.

The term IC50 denotes the concentration needed to halve the response being measured.
